Test results reported in paper PMC9032987, “Cytotoxic Alkylynols of the Sponge Cribrochalina vasculum: Structure, Synthetic Analogs and SAR Studies” (Marine Drugs, 2022).

What was measured:
[1] = system: WI-38 diploid lung fibroblasts; parameters: method as in PMID 25319389; details: 72 h; cited from earlier work
NSCLC U-1810 cells [2] = experiment: MTT cytotoxicity assay in NSCLC U-1810 cells; type: cell-based, human; details: for Selectivity NSCLC cells (U-1810) vs. diploid fibroblasts (WI-38): calculated at IC50 (WI-38 IC50 / U-1810 IC50)
Procedure: Cytotoxicity structure-activity relationship analyses of compounds in NSCLC tumor cells and fibroblasts. Stock solutions (10 mg/mL) of the compounds to be tested were made in DMSO and further diluted with cell culture media prior to structure-activity relationship (SAR) screening as earlier described. To assess anti-tumor activity, the large cell lung carcinoma cell line NSCLC U-1810 (kind gift from Uppsala University) and diploid lung fibroblasts WI-38 [30] were used. U-1810 cells were propagated in RPMI-1640 medium (Sigma-Aldrich, St. Louis, […], USA) supplemented with FBS (10% HyClone) and L-glutamine (2 mmol/L, Invitrogen) while WI-38 fibroblasts were cultured in Eagle’s Minimum Essential Medium (Sigma-Aldrich) with 15% FBS and L-glutamine. For SAR assessment the cytotoxic assay 3-(4,5-dimethylthiazol-2-yl)-2,5 diphenyltetrazolium bromide (MTT) was applied. Profiling of U-1810 cells was carried out at 80% confluency (obtained by seeding 5000 cells/well in a 96-well plate for 24 h prior to treatment) and of WI-38 at 100% confluency (obtained by seeding 18,000 cells/well in a 96-well plate for 24 h prior to compound addition), the later to mimic the behavior of fibroblasts in the human body where they are non-dividing. For SAR evaluation, different concentrations of the compounds were added to fresh media while untreated cells were treated with DMSO corresponding to the amount applied when testing the highest concentration of the different compounds. The cytotoxicity of the compounds was assessed at 72 h post addition to cells by adding MTT solution (0.5 mg/mL, Sigma-Aldrich, 4 h at 37 °C) and dissolving the resulting formazan crystals in an SDS-containing solution (10% SDS and 0.01 mol/L HCl). Absorbance was quantified at 595 nm and the compound-induced cytotoxicity was calculated relative to that observed in DMSO-treated cells. The IC50 values were deduced from survival plots drawn in Graph Pad PRISM software vers.6 and for some of the compounds extrapolated as indicated in footnotes to Table 1.

NSCLC U-1810 cells [3] = system: NSCLC U-1810 cells; parameters: method as in PMID 25319389; details: 72 h; cited from earlier work

SMILES | IC50 [1] | cytotoxic activity in NSCLC U-1810 cells (in words) (NSCLC U-1810 cells [2]) | Selectivity NSCLC cells (U-1810) vs. diploid fibroblasts (WI-38) (NSCLC U-1810 cells [2]) | IC50 (NSCLC U-1810 cells [3])
C#C[C@H](O)/C=C/CCCCCCCCC(C)CCCCCCCC (stereo partly drawn) [Compound 23, (3R)-14-Methyldocos-(4E)-en-1-yn-3-ol] | 9.7 µM | equally active | 12.1 | 0.8 µM
C#C[C@H](O)/C=C/CCCCCCCCCCCCCCC [scal-18, (3R)-Icos-(4E)-en-1-yn-3-ol] | 7.3 µM | equally active | 14.6 | 0.5 µM
